Patent US8642642B2, “Heterocyclic arylsulphones suitable for treating disorders that respond to modulation of the serotonin 5HT6 receptor” (Abbott Laboratories, priority 2006, dated 2014)
Structures can show the parent of a compound that is named as a salt.

molecular target: T1, human 5-HT6 receptor (Homo sapiens, UniProt P50406); experiment: Human 5-HT6 receptor binding assay (3H-LSD displacement); details: membranes from HEK-293 cells, 2 nM 3H-LSD
T1 construct: expressed in transfected cells
Procedure: The substance to be tested was either dissolved in methanol/Chremophor® (BASF-AG) or in dimethyl sulfoxide and then diluted with water to the desired concentration.
The compounds were dissolved in a concentration of 10^−2 M or 10^−3 M in DMSO. Further dilutions were performed in incubation buffer.
The procedure for the binding assay was based on the method of Monsma et al. (1993) Mol Pharmacol 43: 320-327. The binding reaction was carried out in a total volume of 0.250 ml for 60 min at 37° C. Membranes from HEK-293 cells stably expressing the human 5-HT6 receptor were incubated with 2 nM ^3H-LSD in the presence or absence of various concentrations of test compound for 60 min at 37° C. Non-specific binding was defined with 100 μM Serotonin (5-HT). Assays were performed in duplicate. Bound and free radioligand was separated by filtration and bound radioactivity determined by liquid scintillation counting.
The specific ligand binding to the receptors was defined as the difference between the total binding and the nonspecific binding determined in the presence of an excess of unlabelled 5-HT. The results are expressed as a percent of control specific binding obtained in the presence of compound. The IC50 values (concentration causing a half-maximal inhibition of control specific binding) and Hill coefficients (nH) were determined by non-linear regression analysis of the competition curves using Hill equation curve fitting.
The inhibition constants (Ki) were calculated from the Cheng Prusoff equation (Ki=IC50/(1+(L/KD)), where L=concentration of radioligand in the assay, and KD=affinity of the radioligand for the receptor).

T1 sequence (P50406 whole entry): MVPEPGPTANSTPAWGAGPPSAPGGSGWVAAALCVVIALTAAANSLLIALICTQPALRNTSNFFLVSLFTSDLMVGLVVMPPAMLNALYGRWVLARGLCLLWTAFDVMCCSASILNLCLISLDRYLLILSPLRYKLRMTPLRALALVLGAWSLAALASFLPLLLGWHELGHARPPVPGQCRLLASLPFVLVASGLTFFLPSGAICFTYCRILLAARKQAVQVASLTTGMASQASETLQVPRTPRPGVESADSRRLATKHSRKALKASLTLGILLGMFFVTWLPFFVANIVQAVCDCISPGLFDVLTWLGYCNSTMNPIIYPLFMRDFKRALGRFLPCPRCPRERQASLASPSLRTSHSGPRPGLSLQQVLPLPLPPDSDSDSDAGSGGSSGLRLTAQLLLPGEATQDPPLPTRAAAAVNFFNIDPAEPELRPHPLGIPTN

Row | SMILES | Ki
1 | CSc1nccc(-c2ccc(S(=O)(=O)Nc3cccc(C4CNC4)c3)s2)n1 [Example 23, 5-(2-Methylsulfanyl-pyrimidin-4-yl)-thiophene-2-sulfonic acid (3-azetidin-3-yl-phenyl)-amide] | 10 to 50 nM
2 | COc1ccc(OC)c(S(=O)(=O)Nc2cccc(C3CNC3)c2)c1 [Example 14, N-(3-Azetidin-3-yl-phenyl)-2,5-dimethoxy-benzenesulfonamide] | 1 to 10 nM
3 | CCCN1CC(c2ccc(NS(=O)(=O)c3cccc(F)c3)cc2)C1 [Example 45, 3-Fluoro-N-[4-(1-propyl-azetidin-3-yl)-phenyl]-benzenesulfonamide] | 10 to 50 nM
4 | CCCN1CC[C@@H](c2ccc(NS(=O)(=O)c3cccc([C@H](C)C(F)F)c3)cc2)C1 [Example 34, 3-((S)-2,2-Difluoro-1-methyl-ethyl)-N-[4-((S)-1-propyl-pyrrolidin-3-yl)-phenyl]-benzenesulfonamide] | 10 to 50 nM
5 | CCCN1CC(c2ccc(NS(=O)(=O)c3cc(C(F)(F)F)cc(C(F)(F)F)c3)cc2)C1 [Example 42, N-[4-(1-Propyl-azetidin-3-yl)-phenyl]-3,5-bis-trifluoromethyl-benzenesulfonamide] | 50 to 150 nM
6 | COc1ccc(C)cc1S(=O)(=O)Nc1cccc(C2CNC2)c1 [Example 22, N-(3-Azetidin-3-yl-phenyl)-2-methoxy-5-methyl-benzenesulfonamide] | 1 to 10 nM
7 | O=S(=O)(Nc1cccc(C2CNC2)c1)c1cccc(Cl)c1 [Example 17, N-(3-Azetidin-3-yl-phenyl)-3-chloro-benzenesulfonamide] | < 1 nM
8 | Cc1nc(-c2cccc(S(=O)(=O)Nc3cccc(C4CNC4)c3)c2)cs1 [Example 10, N-(3-Azetidin-3-yl-phenyl)-3-(2-methyl-thiazol-4-yl)-benzenesulfonamide] | 1 to 10 nM
9 | O=S(=O)(Nc1cccc(C2CNC2)c1)c1cccc(OC(F)(F)F)c1 [Example 32, N-(3-Azetidin-3-yl-phenyl)-3-trifluoromethoxy-benzenesulfonamide] | 1 to 10 nM
10 | O=S(=O)(Nc1ccc(C2CNC2)cc1)c1cccc(C(F)(F)F)c1 [Example 11, N-(4-Azetidin-3-yl-phenyl)-3-trifluoromethyl-benzenesulfonamide] | 1 to 10 nM
11 | O=S(=O)(Nc1cccc(C2CNC2)c1)c1cc(Cl)sc1Cl [Example 16, 2,5-Dichloro-thiophene-3-sulfonic acid (3-azetidin-3-yl-phenyl)-amide] | 1 to 10 nM
12 | O=S(=O)(Nc1cccc([C@@H]2CCNC2)c1)c1cccc(OC(F)(F)F)c1 [Example 7, N—((S)-3-Pyrrolidin-3-yl-phenyl)-3-trifluoromethoxy-benzene sulfonamide] | 1 to 10 nM
13 | N#Cc1cccc(S(=O)(=O)Nc2cccc(C3CNC3)c2)c1 [Example 24, N-(3-Azetidin-3-yl-phenyl)-3-cyano-benzenesulfonamide] | 50 to 150 nM
14 | O=S(=O)(Nc1cccc(C2CNC2)c1)c1cccs1 [Example 12, Thiophene-2-sulfonic acid (3-azetidin-3-yl-phenyl)-amide] | 10 to 50 nM
15 | O=S(=O)(Nc1cccc(C2CNC2)c1)c1cccc(F)c1 [Example 15, N-(3-Azetidin-3-yl-phenyl)-3-fluoro-benzenesulfonamide] | 1 to 10 nM
16 | CCCN1CC(c2ccc(NS(=O)(=O)c3cc(C)ccc3C)cc2)C1 [Example 43, 2,5-Dimethyl-N-[4-(1-propyl-azetidin-3-yl)-phenyl]-benzenesulfonamide] | 10 to 50 nM
17 | Cc1c(S(=O)(=O)Nc2cccc(C3CNC3)c2)sc2ccc(Cl)cc12 [Example 9, 5-Chloro-3-methyl-benzo[b]thiophene-2-sulfonic acid (3-azetidin-3-yl-phenyl)-amide] | 1 to 10 nM
18 | Cc1cccc(S(=O)(=O)Nc2cccc(C3CNC3)c2)c1 [Example 19, N-(3-Azetidin-3-yl-phenyl)-3-methyl-benzenesulfonamide] | 1 to 10 nM
19 | COc1cccc(S(=O)(=O)Nc2cccc(C3CNC3)c2)c1 [Example 25, N-(3-Azetidin-3-yl-phenyl)-3-methoxy-benzenesulfonamide] | 1 to 10 nM
20 | CCCN1CC(c2ccc(NS(=O)(=O)c3ccc(F)c(Cl)c3)cc2)C1 [Example 44, 3-Chloro-4-fluoro-N-[4-(1-propyl-azetidin-3-yl)-phenyl]-benzenesulfonamide] | 50 to 150 nM
21 | CCCN1CC(c2ccc(NS(=O)(=O)c3cc(Cl)ccc3Cl)cc2)C1 [Example 40, 2,5-Dichloro-N-[4-(1-propyl-azetidin-3-yl)-phenyl]-benzenesulfonamide] | 50 to 150 nM
22 | O=S(=O)(Nc1cccc(C2CNC2)c1)c1ccc(S(=O)(=O)c2ccccc2)s1 [Example 21, 5-Benzenesulfonyl-thiophene-2-sulfonic acid (3-azetidin-3-yl-phenyl)-amide] | 50 to 150 nM
23 | CCCN1CC[C@@H](c2ccc(NS(=O)(=O)c3cccc(OC(F)(F)F)c3)cc2)C1 [Example 1, 3-Trifluoromethoxy-N-[4-((S)-1-propyl-pyrrolidin-3-yl)-phenyl]-benzenesulfonamide and its hydrochloride] | 10 to 50 nM
24 | O=S(=O)(Nc1cccc(C2CNC2)c1)c1cc(C(F)(F)F)cc(C(F)(F)F)c1 [Example 13, N-(3-Azetidin-3-yl-phenyl)-3,5-bis-trifluoromethyl-benzenesulfonamide] | 10 to 50 nM
25 | CCCN1CCC(c2cc(NS(=O)(=O)c3cccc(OC(F)(F)F)c3)ccc2OC)C1 (stereo not shown) [Example 8, N-[4-Methoxy-3-(1-propyl-pyrrolidin-3-yl)-phenyl]-3-trifluoromethoxy-benzenesulfonamide] | 10 to 50 nM
26 | Cc1c(S(=O)(=O)Nc2ccc(C3CNC3)cc2)sc2ccc(Cl)cc12 [Example 26, 5-Chloro-3-methyl-benzo[b]thiophene-2-sulfonic acid (4-azetidin-3-yl-phenyl)-amide] | 1 to 10 nM
27 | COc1ccc(Br)cc1S(=O)(=O)Nc1cccc(C2CNC2)c1 [Example 20, N-(3-Azetidin-3-yl-phenyl)-5-bromo-2-methoxy-benzenesulfonamide] | < 1 nM
28 | O=S(=O)(Nc1cccc(C2CNC2)c1)c1cccc(C(F)(F)F)c1 [Example 31, N-(3-Azetidin-3-yl-phenyl)-3-trifluoromethyl-benzenesulfonamide] | 1 to 10 nM

Other lines, results leading:

Row | Ki | SMILES
29 | 10 to 50 nM | CCCN1C[C@H](c2ccc(NS(=O)(=O)c3cccc(C(F)(F)F)c3)cc2)C[C@H]1C [Example 94, N-[4-((3S,5R)-5-Methyl-1-propyl-pyrrolidin-3-yl)-phenyl]-3-trifluoromethyl-benzenesulfonamide hydrochloride]
30 | 50 to 150 nM | CCCN1CC(c2ccc(NS(=O)(=O)c3cc(Cl)sc3Cl)cc2)C1 [Example 46, 2,5-Dichloro-thiophene-3-sulfonic acid [4-(1-propyl-azetidin-3-yl)-phenyl]-amide]
31 | 50 to 150 nM | CCCN1CC(c2ccc(NS(=O)(=O)c3ccc(F)c(F)c3)cc2)C1 [Example 54, 3,4-Difluoro-N-[4-(1-propyl-azetidin-3-yl)-phenyl]-benzenesulfonamide]
32 | 50 to 150 nM | CCCN1CC(c2ccc(NS(=O)(=O)c3cccc(Cl)c3Cl)cc2)C1 [Example 51, 2,3-Dichloro-N-[4-(1-propyl-azetidin-3-yl)-phenyl]-benzenesulfonamide]
33 | 10 to 50 nM | O=S(=O)(Nc1cccc([C@@H]2CCN(Cc3ccccc3)C2)c1)c1cccc(C(F)(F)F)c1 [Example 65, N-[3-((S)-1-Benzyl-pyrrolidin-3-yl)-phenyl]-3-trifluoromethyl-benzene sulfonamide]
34 | 10 to 50 nM | CCCN1CC(c2ccc(NS(=O)(=O)c3cccc(Br)c3)cc2)C1 [Example 52, 3-Bromo-N-[4-(1-propyl-azetidin-3-yl)-phenyl]-benzenesulfonamide]
35 | 1 to 10 nM | O=S(=O)(Nc1cccc([C@@H]2CCNC2)c1)c1cccc(C(F)(F)F)c1 [Example 67, N-[3-((S)-pyrrolidin-3-yl)-phenyl]-3-trifluoromethyl-benzene sulfonamide]
36 | 10 to 50 nM | CCCN1CC[C@@H](c2ccc(NS(=O)(=O)c3cc(C(F)(F)F)ccc3OC)cc2)C1 [Example 91, 2-Methoxy-N-[4-((S)-1-propyl-pyrrolidin-3-yl)-phenyl]-5-trifluoromethyl-benzenesulfonamide]
37 | 10 to 50 nM | O=S(=O)(Nc1ccc([C@@H]2CCNC2)cc1)c1cccc(C(F)(F)F)c1 [Example 101, N—((S)-4-Pyrrolidin-3-yl-phenyl)-3-trifluoromethyl-benzenesulfonamide]
38 | 10 to 50 nM | CCCN1CC(c2ccc(NS(=O)(=O)c3cccc(Cl)c3)cc2)C1 [Example 48, 3-Chloro-N-[4-(1-propyl-azetidin-3-yl)-phenyl]-benzenesulfonamide]
39 | 10 to 50 nM | CCCN1CC[C@@H](c2ccc(NS(=O)(=O)c3cc(C(F)(F)F)ccc3F)cc2)C1 [Example 104, 2-Fluoro-N-[4-((S)-1-propyl-pyrrolidin-3-yl)-phenyl]-5-trifluoromethyl-benzenesulfonamide]
40 | 10 to 50 nM | CCCN1CC(c2ccc(NS(=O)(=O)c3ccc(Cl)s3)cc2)C1 [Example 47, 5-Chloro-thiophene-2-sulfonic acid [4-(1-propyl-azetidin-3-yl)-phenyl]-amide]
